“Also recorded” adds a separate entry of the source. Non-standard residues stand in square brackets, D forms with d. No end group written: not given here. 2Nal = N[C@@H](Cc1ccc2ccccc2c1)C(=O)O; Sar = CNCC(=O)O
Experiments:
[1] = system: carboplatin-treated mice; assay: Example 4: lower doses, survival of erythrocyte lineages in carboplatin-treated mice; type: in vivo, BALB/c mouse
Method: (§1) The effects of PEGylated TPO Compound No. 1 on mice treated with carboplatin were observed. For all examples herein, a 10 mg/ml stock solution of PEGylated TPO Compound No. 1 was prepared in sterile saline. For mixing, the preparation was placed on a gyratory shaker for 15 mm. at 200 rpm. This method was used to dissolve PEGylated TPO Compound No. 1 without foaming. The stock was filtered using a GV Millex (0.22 μm) filter. Dosing solutions were then prepared from this stock using sterile saline. The stock and dosing solutions were prepared fresh on the day of use.
The ability of PEGylated TPO Compound No. 1 to function as a survival factor for megakaryocyte and erythrocyte lineages in carboplatin-treated mice as determined by changes in hematological parameters was observed. […] In this study, the effect of lower doses of PEGylated TPO Compound No. 1 (i.e., 30, 100 and 300 μg/kg) on the survival of erythrocyte lineages was examined to characterize the dose-response for this effect.
The groups of mice were treated with either carboplatin or vehicle (Phosphate Buffered Saline, PBS) by ip administration on Days −1 and 0 as delineated below. The optimal dose of carboplatin used to induce thrombocytopenia in the BALB/c mouse strain was previously determined to be a fractionated total dose of 120 mg/kg given as two consecutive daily injections (i.e., 2×60 mg/kg). Approximately one hour following the second dose of carboplatin, groups of mice were treated with PEGylated TPO Compound No. 1 or vehicle (sterile saline, SS, preservative-free 0.9% sodium chloride) by IV (bolus) injection as delineated in Table 4. The dose was administered on a per-weight basis (100 μl/10 g body weight).
On Days 6, 8 and 12, five mice in each test group were weighed and then euthanised using CO2-asphyxiation and exsanguinations via cardiac puncture. The blood samples were transferred to separate EDTA (lavender-top) microcontainers for hematologic evaluation. Groups of control mice (5) were processed on Days 6 & 12.

[2] = target: T1, human TPO receptor, c-mpl (hTPOr) (Homo sapiens, UniProt P40238); assay: Example 7: Baf/3 hTPOr fos/lux luciferase reporter assay; type: cell-based
T1 construct: expressed in transfected cells
T1 sequence (P40238 26-635): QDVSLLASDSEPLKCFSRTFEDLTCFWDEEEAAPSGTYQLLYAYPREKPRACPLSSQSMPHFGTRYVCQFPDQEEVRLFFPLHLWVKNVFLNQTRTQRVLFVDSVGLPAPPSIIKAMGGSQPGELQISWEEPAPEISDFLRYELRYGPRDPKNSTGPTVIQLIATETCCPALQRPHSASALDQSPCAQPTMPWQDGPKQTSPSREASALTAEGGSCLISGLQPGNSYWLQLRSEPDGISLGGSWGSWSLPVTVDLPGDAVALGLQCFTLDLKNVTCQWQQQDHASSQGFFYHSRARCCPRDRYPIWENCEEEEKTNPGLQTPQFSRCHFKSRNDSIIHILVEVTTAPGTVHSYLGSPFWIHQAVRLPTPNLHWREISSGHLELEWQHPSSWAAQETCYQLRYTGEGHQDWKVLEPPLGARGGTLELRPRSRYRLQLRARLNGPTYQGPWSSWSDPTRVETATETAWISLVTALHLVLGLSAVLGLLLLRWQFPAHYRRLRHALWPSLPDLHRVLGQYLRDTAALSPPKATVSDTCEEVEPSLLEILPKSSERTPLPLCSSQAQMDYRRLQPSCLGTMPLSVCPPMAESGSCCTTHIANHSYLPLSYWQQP
Source text: The activity of the peptide compounds can be determined using standard relative luminescent units assay techniques. The assay employs, e.g., murine cells engineered to stably express the human TPO receptor and a luciferase reporter construct driven by the fos promoter. The assay may be performed as follows: Serum deprived Baf/3 hTPOr fos/lux cells expressing the human TPO receptor, c-mpl (hTPOr), and a luciferase reporter construct are exposed to increasing concentrations of either rhTPO or peptide compound for approximately 18 hours. Cells are then incubated in a medium containing a luciferase substrate and the luminescence of the cells is measured using a luminometer.

[3] = system: carboplatin treated mice; assay: Example 6: mechanistic study, increasing carboplatin, hematology and brain fibrinogen/fibrin histology; type: in vivo, mouse
Method: as §1
For mechanistic studies, groups of mice were treated with vehicle or increasing amounts of carboplatin (i.e., 60, 70 or 80 mg/kg) for 2 consecutive days (Day −1 & Day 0). Approximately one hour following the second dose of carboplatin, groups of mice were treated with PEGylated TPO Compound No. 1 (100 μg/kg) or vehicle (sterile saline, SS, preservative-free 0.9% sodium chloride) by IV (bolus) injection as delineated in Table 5.
On Day 15, the mice in all treatment groups were euthanised using CO2-asphyxiation and exsanguinations via cardiac puncture. The blood samples were transferred to separate EDTA (lavender-top) microtainers for hematologic evaluation. In addition, several organs (including the brains) of control mice and mice treated with 2×70 mg/kg carboplatin without and with co-treatment with PEGylated TPO Compound No. 1 were isolated and processed for histological examination. Sections of these tissues were processed immunohistochemically for fibrinogen/fibrin.

Compound	carboplatin-induced decreases in RBC counts and hematocrit ([1]; 30, 100, 300 μg/kg iv)	weight loss or recovery ([1]; 30, 100, 300 μg/kg iv, 13-Day study period)	carboplatin-induced decrease in hemoglobin levels ([1]; all doses (30, 100, 300 μg/kg iv, about one hour after second carboplatin dose), Day 12)	anemia induced by carboplatin ([1]; all doses, Day 12)	altered appearance and behavior (hunched, unkempt, soft stool) ([1]; appeared to be dose-dependent)	activation of TPO-R compared with TPO ([2]; at the same concentration as TPO)	activation of Baf/3 cells recombinantly expressing human TPO-R ([2]; increasing concentrations)	carboplatin-induced decreases in platelet and RBC counts ([3]; 100 μg/kg iv about one hour after second carboplatin dose, Day 15)	microthrombotic events in brain sections, entire dose group ([3]; 2×70 mg/kg carboplatin plus 100 μg/kg iv)	fibrinogen/fibrin staining of small vessels in brain sections ([3]; 2×70 mg/kg carboplatin plus 100 μg/kg iv, Day 15, 70 mg/kg)	thrombocytopenia or anemia ([3]; 2×80 mg/kg carboplatin plus 100 μg/kg iv, Day 15)	survival ([3]; 2×80 mg/kg carboplatin plus 100 μg/kg iv, all of the mice)	decrease in hemoglobin levels ([1]; carboplatin alone 2×60 mg/kg ip, by Day 12)	mortality ([3]; 2×80 mg/kg carboplatin (alone), all of the mice, prior to study termination)
Methoxypolyethyleneglycol20000-propionyl-L-Isoleucyl-L-Glutamyl-Glycyl-L-Prolyl-L-Threonyl-L-Leucyl-L-Arginyl-L-Glutaminyl-L-2-Naphthylalanyl-L-Leucyl-L-Alanyl-L-Alanyl-L-Arginyl-Sarcosyl-Ne-(methoxypolyethyleneglycol20000-propionyl-L-Isoleucyl-L-Glutamyl-Glycyl-L-Prolyl-L-Threonyl-L-Leucyl-L-Arginyl-L-Glutaminyl-L-2-Naphthylalanyl-L-Leucyl-L-Alanyl-L-Alanyl-L-Arginyl-Sarcosyl-)-Lysinamide ({methoxypolyethyleneglycol20000‑propionyl}-IEGPTLRQ[2Nal]LAAR[Sar]K[Sar]RAAL[2Nal]QRLTPGEI; also: dimer: positions 16-29 are the second 14-mer written in reverse, its Sar C-terminus joined to the K15 epsilon-amine, K15 is C-terminal lysinamide (NH2), methoxypolyethyleneglycol20000-propionyl also on Ile29 N-terminus) [PEGylated TPO Compound No. 1]	effectively inhibited	did not appear to affect weight loss or recovery	totally inhibited	completely prevent the anemia	decreased the onset, frequency and severity of these signs	stronger activation	dose dependent	totally inhibited	single	appeared normal or exhibited fibrinogen/fibrin staining that was only slightly darker than the control group; also recorded: reduces fibrinogen deposition and blood clots	did not exhibit thrombocytopenia or anemia	survived until the scheduled study termination		
N.N.O=C([O-])C1(C(=O)[O-])CCC1.[Pt+2] [carboplatin, reference compound]													greater than 25%	either found dead or were euthanized (moribund)

Reference: patent US7615533B2, “TPO peptide compounds for treatment of anemia” (Janssen Pharmaceutica N.V., priority 2004, dated 2009)
